Patent publication US7968526B2, “Antisense oligonucleotides directed to ribonucleotide reductase R2 and uses thereof in the treatment of cancer” (Lorus Therapeutics Inc., priority 2003, dated 2011)
Entries after “also recorded” stand apart in the source; their conditions may differ.

Columns and labels:
[1] = test system: C8161 human metastatic melanoma cells; assay: Experimental metastasis assay, C8161 cells, treatment post tumour cell injection; format: in vivo, human cells in mice; conditions: C8161 cells i.v. into SCID mice; treatment initiated after 2 days; lungs 5-7 weeks later
Description: C8161 human melanoma cells were seeded into 100 mm tissue culture dishes at a density of 2×10^6 and incubated overnight at 37° C. in α-MEM medium supplemented with 10% FBS. The cells were trypsinized, collected by centrifugation and aliquots were removed from the suspension to determine the cell viability using trypan blue exclusion test. […] Treatment was initiated after 2 days. Estimates of the number of lung nodules were made 5-7 weeks later, after excised lungs from individual mice were stained with picric acid dye solution (75% picric acid, 20% formaldehyde, 5% glacial acetic acid).
Murine R3 fibrosarcoma and human C8161 melanoma cells injected into the tail vein of mice form observable lung nodules 2 weeks post-injection. […] To more accurately reflect the clinical situation, mice were treated with SEQ ID NO:1 post tumour cell injection. C8161 human metastatic melanoma cells were seeded into 100 mm tissue culture dishes at a density of 2×10^6 and incubated overnight at 37° C. in α-MEM medium supplemented with 10% FBS. The cells were trypsinized, collected by centrifugation and aliquots were removed from the suspension to determine the cell viability using trypan blue exclusion test. Approximately 1×10^5 cells suspended in 0.1 ml of PBS were injected into the tail veins of 6-8 week old female SCID mice. Treatment was initiated after 2 days. Estimates of the number of lung nodules were made 5-7 weeks later, after excised lungs from individual mice were stained with picric acid dye solution (75% picric acid, 20% formaldehyde, 5% glacial acetic acid). The results are shown in FIG. 31, bars represent the mean number of nodules per mouse with standard error.

[2] = test system: Caki-1 human renal cancer cells; assay: Caki-1 renal tumour xenograft, combination with 5-FU or vinblastin (1.3); format: in vivo, human cells in mice
From the text: All treatments were stopped at day 22. […] All treatments were stopped at day 32. […] All treatments were stopped at day 36.

[3] = test system: MDA-CDDP-S4 human in vivo-selected Cisplatin-resistant breast adenocarcinoma cells; assay: MDA-CDDP-S4 Cisplatin-resistant breast adenocarcinoma, fat pad, SCID mice (2.3); design: species or system human cells in mice
Description: BxPC-3 is a gemcitabine resistant call line. […] Gemcitabine was administered intravenously every three days at a dose of 100 mg/kg. Antitumour activities were estimated by the inhibition of tumour volume, which was measured with caliper. Each point represents mean tumour volume calculated from 10 animals per experimental group. […] Hela S3 is a hydroxyurea resistant cell line. […] Hydroxyurea was administered intraperitoneally every day at a dose of 250 mg/kg for 10 days. Cisplatin was administered intravenously once a week for three weeks at a dose of 4 mg/kg. Antitumour activities were estimated by the inhibition of tumour volume, which was measured with caliper. Each point represents mean tumour volume calculated from 10 animals per experimental group. […] Cisplatin was administered intravenously once a week for three weeks at a dose of 4 mg/kg. Taxol was administered intravenously once a week for three weeks at a dose of 10 mg/kg. Antitumour activities were estimated by the inhibition of tumour volume, which was measured with caliper. Each point represents mean tumour volume calculated from 10 animals per experimental group. […] Taxol was administered i.p. once a week at a dose of 10 mg/kg. Antitumour activities were estimated by the inhibition of tumour volume (FIG. 12A), which was measured with calipers. Each point represents mean tumour volume calculated from 10 animals per experimental group. Animals were sacrificed and tumour weights taken at the end of the study (FIG. 12C). […] Cisplatin was administered intravenously once a week for four weeks at a dose of 4 mg/kg. Taxol was administered intravenously once a week for four weeks at a dose of 20 mg/kg. Antitumour activities were estimated by the inhibition of tumour volume, which was measured with caliper. Each point represents mean tumour volume calculated from 9-10 animals per experimental group. […] Cisplatin was administered intravenously once a week for four weeks at a dose of 4 mg/kg. Antitumour activities were estimated by the inhibition of tumour volume, which was measured with caliper. Each point represents mean tumour volume calculated from 10 animals per experimental group. At the end of the study the animals were sacrificed and tumours weighed. […] Taxol was administered i.p. once a week at a dose of 10 mg/kg. Anti-tumour activity was estimated by the inhibition of tumour volume, which was measured with caliper. Each point represents mean tumour volume calculated from 10 animals per experimental group. In addition animals were sacrificed and tumour weights taken at the end of the study. […] CPT-11 was administered i.p. for 5 days at a dose of 20 mg/kg/day. Antitumour activities were estimated by the inhibition of tumour volume, which was measured with caliper. Each point represents mean tumour volume calculated from 10 animals per experimental group. Tumour weights were measured after animals were sacrificed at the end of the treatment. These cells are not resistant to CPT-11 which was used as a positive control.

Substance: 5′-GGCTAAATCGCTCCACCAAG-3′ (all phosphorothioate, sugars by position and methylation of C not given here) [SEQ ID NO: 1, fully phosphorothioated antisense oligonucleotide that hybridizes to the coding region of R2 mRNA]
- Lung nodule formation / anti-metastatic activity (FIG. 31) [1]: only one of the 9 mice had lung nodules
- Tumour weight as % of saline control ([2]; Caki (renal), CD-1 mouse as printed, SEQ ID NO:1 10 mg/kg i.v. every other day, 5-FU 13 mg/kg/day i.p., vinblastin 0.6 mg/kg/week i.p.): 3.3%
- Antitumour effect (tumour weight, FIG. 3A) ([2]; Caki-1, SCID mice, SEQ ID NO:1 10 mg/kg i.v. every other day, 5-FU 13 mg/kg/day i.p., vinblastin 0.6 mg/kg/week i.p.): significant delay of tumour growth compared to saline control; also recorded: superior to the inhibitory effects observed with each of two chemotherapeutic compounds
- Inhibition of tumour size ([2]; Human Renal Carcinoma^2 (second entry of Table 5)): Approximately 97% inhibition of tumour size
- Tumour weight as % of saline control ([3]; MDA-CDDP-S4 (breast), Cisplatin resistant, SCID, SEQ ID NO:1 10 mg/kg i.v. every other day 9 times, Taxol 10 mg/kg, Cisplatin 4 mg/kg i.v. weekly x3): 32%
- Antitumour effect (FIG. 11) ([3]; MDA-CDDP-S4 Cisplatin-resistant, SCID mice, SEQ ID NO:1 10 mg/kg i.v. every other day, Cisplatin 4 mg/kg, Taxol 10 mg/kg i.v. weekly): significant reduction of tumour weight compared to saline control
